Experiment [1] addresses EGFR L858R/T790M double mutant enzyme (Homo sapiens, UniProt P00533, L858R/T790M). Nature of the experiment: Kinase assay (HTRF KinEASE TK), EGFR L858R/T790M. The class given is biochemical. The source says: (§1) To detect the inhibitory effect of compounds on EGFR WT, EGFR (D770_N771insNPG), ERBB2 (V777_G778ins>CG), EGFR T790M/L858R enzyme activities
(§2) EGFR WT (Invitrogen, Cat. No. PR7295B), EGFR [L858R] (Invitrogen, Cat. No. PR7447A), EGFR [d746-750] (Invitrogen, Cat. No. PV6179), ATP (Sigma, Cat. No. A7699-1G), DMSO (Sigma, Cat. No. D2650), DTT (Sigma, Cat. No. 43815), 384-well plate, compound dilution plate (Greiner, Cat. No. 781280), 384-well plate, test plate (Perkin Elmer, Cat. No. 6007299), HTRF KinEASE TK Kit (Cisbio, Cat. No. 62TK0PEB), magnesium chloride (Sigma, Cat. No. M1028), Orthovanadate (Sigma, Cat. No. 56508), BSA (Sigma, Cat. No. A7030), HEPES (Life technology, Cat. No. 11344-041).
(§3) The final test concentrations of the test compounds ranged from 10 μM to 0.17 nM in 3-fold gradient dilutions at 11 concentrations.
(§4) The preparation of the buffer, 50 mM HEPES (pH 7.5), 0.01% BSA, 5 mM MgCl2, and 0.1 mM Orthovanadate were contained in the buffer. After the preparation of the buffer, the enzyme and substrate were mixed with pre-diluted prepared compounds of different concentrations, and the mixture was placed at room temperature for 15 minutes. […] After the reaction was completed, the antibody was added to the assay, incubated at room temperature for 60 minutes and then detected by Envision (plate reading instrument), and data were collected. […]

Experiment [2] has as its target HER2 exon 20 insertion (V777_G778ins > CG) enzyme (Homo sapiens, UniProt P04626, INS777CG). Briefly: Kinase assay (HTRF KinEASE TK), HER2 exon 20 insertion. The class given is biochemical.
From the text: as §1, §2, §3, §4
(Time-resolved FRET reads energy transfer from a long-lived donor to a nearby acceptor.)

Experiment [3] concerns H1975 (L858R/T790M) cells. Briefly: Anti-proliferation activity test against H1975 cells. The class given is cell-based. The following applies: Homo sapiens, NCI-H1975, Cell-Titer Glo, 72 hours. As for the experimental part: (2) Anti-Proliferation Activity Test of the Compound Against H1975 Cells and IC50 Test of Anti-Proliferation Activity Against A431 Cells
RPMI1640 medium, FBS fetal bovine serum, trypsin-EDTA, were all purchased from Giboco. DPBS was purchased from Corning, penicillin/streptomycin solution was purchased from Hyclone, and Cell-Titer Glo reagent was purchased from Promega (1kit, Cat. No. G7571). Plate reading instrument: Envision (PerkinElmer).
384-well plates in columns 1, 2, and 24 were added with 45 μL of medium, and the cell suspension was dispensed with Multi-drop at 45 μL per well (1000 cells) and incubated overnight in an incubator. The compound was added to the source plate according to the Echo dispensing requirements, the compound in the source plate was added to the inter plate and diluted to an intermediate concentration, then the compound in the source plate and the inter plate was added to the cell plate, and the cells were continued to be incubated in a incubator for 72 hours. After 72 hours, Cell-Titer Glo reagent and cells were removed and equilibrated at room temperature for 30 min. 25 μL of Cell-Titer Glo reagent was dispensed into 384-well plates with Multi-drop, the cell plate was vibrated at medium speed for 3 min, centrifuged at 1000 rpm for 2 min, and stood for 10 min. The plate was read by Envision (Luminescence). […]

The subject of experiment [4] is HuPrime lung cancer LU0387 subcutaneous xenograft tumor. Nature of the experiment: HuPrime lung cancer LU0387 subcutaneous xenograft BALB/c nude mouse model. The class given is in vivo, BALB/c Nude mice. As to the method: The antitumor effects of the test drug in HuPrime® lung cancer LU0387 subcutaneous xenograft BALB/C nude mouse were evaluated.
BALB/c Nude mice, female, 7-8 weeks, HuPrime® lung cancer xenograft model LU0387 tumor-bearing mouse tumor tissue.
BALB/c nude mice were subcutaneously inoculated with HuPrime® model LU0387 tumor blocks to establish a human lung cancer subcutaneous transplantation tumor model. The test was divided into a solvent control group and a test drug group. The drug was administered by gavage, once daily for 21 days. Efficacy was evaluated based on relative tumor inhibition rate (TGI), and the safety was evaluated based on animal weight change and mortality.
Tumor diameters were measured with vernier calipers twice a week. The calculation formula of tumor volume was: V=0.5a×b^2, wherein a and b represented the long and short diameters of the tumor, respectively.
The antitumor efficacy of the compounds was evaluated by TGI (%) or relative tumor proliferation rate T/C (%).
Relative tumor proliferation rate T/C (%)=TRTV/CRTV×100% (TRTV: mean RTV in the treatment group; CRTV: mean RTV in the solvent control group).
The relative tumor volume (RTV) was calculated according to the results of tumor measurement. The calculation formula was RTV=Vt/V0, wherein V0 was the tumor volume measured at the time of group administration (i.e., D0), and Vt was the tumor volume corresponding to a certain measurement. TRTV and CRTV were taken on the same day.
TGI (%), reflecting the tumor growth inhibition rate. TGI (%)=[(1−(average tumor volume at the end of administration of a treatment group−average tumor volume at the beginning of administration of this treatment group))/(average tumor volume at the end of treatment in the solvent control group−average tumor volume at the beginning of treatment of the solvent control group)]×100%.

As usually defined, the IC50 is the concentration that inhibits the measured activity by half. The term T/C denotes the ratio of treated to control.

EGFR L858R/T790M double mutant enzyme, sequence (P00533 25-1210 T790M/L858R): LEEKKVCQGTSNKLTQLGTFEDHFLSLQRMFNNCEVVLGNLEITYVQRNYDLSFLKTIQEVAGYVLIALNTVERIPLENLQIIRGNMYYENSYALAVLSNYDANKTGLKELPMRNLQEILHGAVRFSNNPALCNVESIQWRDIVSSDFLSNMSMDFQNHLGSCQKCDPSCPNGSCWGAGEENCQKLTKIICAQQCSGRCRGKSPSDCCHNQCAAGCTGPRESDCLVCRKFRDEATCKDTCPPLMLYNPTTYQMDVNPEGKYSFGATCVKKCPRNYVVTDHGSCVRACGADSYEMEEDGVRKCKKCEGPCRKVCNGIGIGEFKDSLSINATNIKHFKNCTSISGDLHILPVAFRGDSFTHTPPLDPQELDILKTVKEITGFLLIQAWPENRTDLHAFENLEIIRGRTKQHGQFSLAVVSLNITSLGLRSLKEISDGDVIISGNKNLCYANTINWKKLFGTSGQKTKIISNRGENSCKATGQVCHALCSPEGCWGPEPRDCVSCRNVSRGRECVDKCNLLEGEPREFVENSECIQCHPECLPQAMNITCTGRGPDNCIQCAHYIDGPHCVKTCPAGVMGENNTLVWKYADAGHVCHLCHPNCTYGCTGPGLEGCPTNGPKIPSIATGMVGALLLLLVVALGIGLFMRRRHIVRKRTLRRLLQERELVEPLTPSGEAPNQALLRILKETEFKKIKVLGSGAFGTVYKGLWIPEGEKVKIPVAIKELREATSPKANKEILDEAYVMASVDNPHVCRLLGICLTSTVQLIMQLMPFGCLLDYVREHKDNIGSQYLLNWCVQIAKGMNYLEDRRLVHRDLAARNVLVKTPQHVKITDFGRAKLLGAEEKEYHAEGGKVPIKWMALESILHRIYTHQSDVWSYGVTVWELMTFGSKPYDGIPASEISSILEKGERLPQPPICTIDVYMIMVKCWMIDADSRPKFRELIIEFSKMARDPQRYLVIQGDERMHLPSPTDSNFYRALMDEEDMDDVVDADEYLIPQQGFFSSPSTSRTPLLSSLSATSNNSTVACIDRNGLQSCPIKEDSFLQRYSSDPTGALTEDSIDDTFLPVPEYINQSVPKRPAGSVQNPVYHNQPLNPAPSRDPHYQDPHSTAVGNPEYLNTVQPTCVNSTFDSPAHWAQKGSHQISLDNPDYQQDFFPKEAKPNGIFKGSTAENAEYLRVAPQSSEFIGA
HER2 exon 20 insertion (V777_G778ins > CG) enzyme, sequence (P04626 with tags, fused parts or gaps INS777CG limits assumed): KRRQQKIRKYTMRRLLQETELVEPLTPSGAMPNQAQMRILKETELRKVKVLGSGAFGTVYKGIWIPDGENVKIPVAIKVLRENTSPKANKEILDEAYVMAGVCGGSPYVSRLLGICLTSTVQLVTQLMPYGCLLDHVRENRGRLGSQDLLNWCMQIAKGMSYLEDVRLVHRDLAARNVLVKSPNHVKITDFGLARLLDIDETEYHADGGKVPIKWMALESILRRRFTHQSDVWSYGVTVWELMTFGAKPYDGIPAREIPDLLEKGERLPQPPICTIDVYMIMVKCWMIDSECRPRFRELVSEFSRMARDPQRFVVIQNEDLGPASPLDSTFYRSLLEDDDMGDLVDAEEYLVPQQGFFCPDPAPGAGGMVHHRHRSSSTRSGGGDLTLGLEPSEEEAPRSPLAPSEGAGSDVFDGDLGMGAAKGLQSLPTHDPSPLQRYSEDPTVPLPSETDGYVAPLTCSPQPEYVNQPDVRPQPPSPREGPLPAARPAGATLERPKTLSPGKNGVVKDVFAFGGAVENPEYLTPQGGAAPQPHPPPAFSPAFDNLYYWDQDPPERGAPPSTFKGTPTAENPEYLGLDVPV

Molecule `C=CC(=O)Nc1cc(Nc2ncc(C(=O)OC(C)C)c(-c3cn(OC)c4ccccc34)n2)c(OC)cc1N(C)CCN(C)C.CS(=O)(=O)O` [Compound 1] returned an IC50 in experiment [1] of 3.71 nM. Moreover, the IC50 in experiment [2] was 1.86 nM. In addition, the IC50 in experiment [3] is 15.3 nM. Moreover, in experiment [4] (Day 0, mean ± standard error, n = 6), the “Tumor volume (Day 0)” value is given as 122.13 ± 3.12 mm^3. For the same molecule, in experiment [4] (Day 20, gavage once daily), the RTV came to 0.14 ± 0.08, the T/C came to 2%, the TGI is reported as 114% and the “Tumor volume (Day 20)” value was determined as 16.97 ± 10.54 mm^3.
